PubChem BioAssay AID330 (DTP/NCI, 2004)
Values joined by “and” are separate entries in the source; they are usually repeats but may differ in a detail not shown here. Identical values can stand only once. Inconclusive results and toxic doses are left out. The calls were made as follows: active = survival T/C of 150% or more; inactive = T/C below 125% in these data.

Tested on: P388 leukemia ip, CD2F1 mice, survival T/C
Assay: NCI In Vivo Anticancer Drug Screen. Data for tumor model P388 Leukemia (intraperitoneal) in CD2F1 (CDF1) mice
Conditions: endpoint: median survival time, higher = longer survival
Summary of the method: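 Mice carrying the transplanted tumor received test compound or vehicle. Survival was recorded in each group, and the value is the treated-group measurement divided by that of the vehicle-treated control group.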

[1] = dose: 50.0 mg/kg/injection, schedule: Q01DX009 (ip), vehicle: saline + Tween-80 + alcohol
[2] = dose: 100.0 mg/kg/injection, schedule: Q01DX009 (ip), vehicle: saline + Tween-80 + alcohol
[3] = dose: 50.0 mg/kg/injection, schedule: Q01DX005 (ip), vehicle: Klucel (hydroxypropylcellulose) (HPC)
[4] = dose: 100.0 mg/kg/injection, schedule: Q01DX005 (ip), vehicle: Klucel (hydroxypropylcellulose) (HPC)
[5] = dose: 200.0 mg/kg/injection, schedule: Q01DX005 (ip), vehicle: Klucel (hydroxypropylcellulose) (HPC)
[6] = dose: 50.0 mg/kg/injection, schedule: Q01DX005 (ip), vehicle: saline with Tween-80
[7] = dose: 100.0 mg/kg/injection, schedule: Q01DX005 (ip), vehicle: saline with Tween-80
[8] = dose: 200.0 mg/kg/injection, schedule: Q01DX005 (ip), vehicle: saline with Tween-80
[9] = dose: 50.0 mg/kg/injection, schedule: Q01DX009 (ip), vehicle: Klucel (hydroxypropylcellulose) (HPC)
[10] = dose: 100.0 mg/kg/injection, schedule: Q01DX009 (ip), vehicle: Klucel (hydroxypropylcellulose) (HPC)

Measured: T/C

C/C=C(\C)C(=O)OC1C(C)=C2C(C1OC(=O)CCCCC)C(C)(OC(C)=O)CC(OC(=O)CCC)C1(O)C2OC(=O)C1(C)O (configuration not stated)
inactive: dose: 0.25 mg/kg/injection, schedule: Q01DX005 (ip), vehicle: Klucel (hydroxypropylcellulose) (HPC) 105 % of control | dose: 0.5 mg/kg/injection, schedule: Q01DX005 (ip), vehicle: Klucel (hydroxypropylcellulose) (HPC) 99 % of control and 123 % of control | dose: 1.0 mg/kg/injection, schedule: Q01DX005 (ip), vehicle: Klucel (hydroxypropylcellulose) (HPC) 105 % of control | dose: 2.0 mg/kg/injection, schedule: Q01DX005 (ip), vehicle: Klucel (hydroxypropylcellulose) (HPC) 106 % of control

CC1(C)COP(Oc2ccccc2)OC1
inactive: dose: 25.0 mg/kg/injection, schedule: Q01DX009 (ip), vehicle: saline + Tween-80 + alcohol 102 % of control | [1] 103 % of control | [2] 100 % of control | dose: 200.0 mg/kg/injection, schedule: Q01DX009 (ip), vehicle: saline + Tween-80 + alcohol 96 % of control

CC(=Nc1ccc2c(c1)C(=O)c1ccc(N=C(C)N(C)C)cc1C2=O)N(C)C
inactive: [3] 100 % of control | [4] 109 % of control | [5] 100 % of control

COC(=O)C(O)CC1=CC[C@@H]2CC=C[C@H]12 (some centres not stated)
inactive: [6] 104 % of control | [7] 104 % of control | [8] 104 % of control

CCc1[nH]c2ccccc2c1C(=O)c1ccncc1
inactive: dose: 100.0 mg/kg/injection, schedule: Q04DX003 (ip), vehicle: suspension in saline 103 % of control | dose: 200.0 mg/kg/injection, schedule: Q04DX003 (ip), vehicle: suspension in saline 101 % of control | dose: 400.0 mg/kg/injection, schedule: Q04DX003 (ip), vehicle: suspension in saline 108 % of control

CC1NC(=O)N(C(C)(C)C)C1=O (configuration not stated)
inactive: [6] 111 % of control | dose: 50.0 mg/kg/injection, schedule: Q01DX005 (ip), vehicle: saline 101 % of control | [7] 111 % of control | dose: 100.0 mg/kg/injection, schedule: Q01DX005 (ip), vehicle: saline 100 % of control | [8] 120 % of control | dose: 200.0 mg/kg/injection, schedule: Q01DX005 (ip), vehicle: saline 102 % of control and 107 % of control

CNc1nc2c(C)ccc3[nH]c(NC)nc3c-2n1
inactive: dose: 8.0 mg/kg/injection, schedule: Q01DX005 (ip), vehicle: Klucel (hydroxypropylcellulose) (HPC) 95 % of control | dose: 16.0 mg/kg/injection, schedule: Q01DX005 (ip), vehicle: Klucel (hydroxypropylcellulose) (HPC) 100 % of control | dose: 32.0 mg/kg/injection, schedule: Q01DX005 (ip), vehicle: Klucel (hydroxypropylcellulose) (HPC) 90 % of control | dose: 64.0 mg/kg/injection, schedule: Q01DX005 (ip), vehicle: Klucel (hydroxypropylcellulose) (HPC) 88 % of control

CC(=O)c1c(O)cc2c3c1OC(C)(C)C1CCC(C)(CC31)O2 (configuration not stated)
inactive: dose: 6.25 mg/kg/injection, schedule: Q01DX009 (ip), vehicle: saline 105 % of control | dose: 12.5 mg/kg/injection, schedule: Q01DX009 (ip), vehicle: saline 105 % of control | dose: 25.0 mg/kg/injection, schedule: Q01DX009 (ip), vehicle: saline 104 % of control | dose: 100.0 mg/kg/injection, schedule: Q01DX009 (ip), vehicle: saline 89 % of control | dose: 200.0 mg/kg/injection, schedule: Q01DX009 (ip), vehicle: saline 93 % of control

Cn1cnc2cc(N3CCCCC3)c(N)cc2c1=O
inactive: dose: 100.0 mg/kg/injection, schedule: Q04DX003 (ip), vehicle: Klucel (hydroxypropylcellulose) (HPC) 107 % of control | dose: 200.0 mg/kg/injection, schedule: Q04DX003 (ip), vehicle: Klucel (hydroxypropylcellulose) (HPC) 99 % of control | dose: 400.0 mg/kg/injection, schedule: Q04DX003 (ip), vehicle: Klucel (hydroxypropylcellulose) (HPC) 102 % of control

C=C1C[C@@]2(OC)OCC[C@H]3C(C)=CCC(C1=O)[C@]32C(=O)OC (some centres not stated)
inactive: [6] 105 % of control | [7] 105 % of control

O=c1[nH]c2ccccc2nc1/C=C(\O)c1ccc([N+](=O)[O-])cc1
inactive: dose: 7.5 mg/kg/injection, schedule: Q01DX005 (ip), vehicle: Klucel + Tween-80 100 % of control | dose: 15.0 mg/kg/injection, schedule: Q01DX005 (ip), vehicle: Klucel + Tween-80 89 % of control | dose: 30.0 mg/kg/injection, schedule: Q01DX005 (ip), vehicle: Klucel + Tween-80 86 % of control

CC(=NC(C)C)Nc1ccc(Cl)cc1C
inactive: [1] 101 % of control | [2] 95 % of control

C#CCNC(=O)/C(C)=C(\C)c1ccc(F)cc1
inactive: dose: 50.0 mg/kg/injection, schedule: Q04DX002 (ip), vehicle: Klucel (hydroxypropylcellulose) (HPC) 101 % of control | dose: 100.0 mg/kg/injection, schedule: Q04DX002 (ip), vehicle: Klucel (hydroxypropylcellulose) (HPC) 103 % of control | dose: 200.0 mg/kg/injection, schedule: Q04DX002 (ip), vehicle: Klucel (hydroxypropylcellulose) (HPC) 111 % of control

O=C(NC(Cc1c[nH]c2ccccc12)C(=O)NC(Cc1ccc(O)cc1)C(=O)O)OCc1ccccc1 (configuration not stated)
inactive: [6] 101 % of control | [7] 106 % of control | [8] 89 % of control

COP(=O)(OC)O[Si](C)(C)CC[Si](C)(C)Cl
inactive: [3] 105 % of control | [4] 105 % of control | [5] 99 % of control

COc1ccc(/C=C2/Oc3c(OC)c(OC)cc(OC)c3C2=O)cc1
inactive: [6] 102 % of control | [7] 98 % of control | [8] 98 % of control

C[C@]12C=CC(=O)C(O)=C1CC[C@@H]1[C@@H]2CC[C@]2(C)OC(=O)CC[C@@H]12
inactive: dose: 5.5 mg/kg/injection, schedule: Q01DX005 (ip), vehicle: Klucel (hydroxypropylcellulose) (HPC) 106 % of control | dose: 11.0 mg/kg/injection, schedule: Q01DX005 (ip), vehicle: Klucel (hydroxypropylcellulose) (HPC) 106 % of control | dose: 22.0 mg/kg/injection, schedule: Q01DX005 (ip), vehicle: Klucel (hydroxypropylcellulose) (HPC) 101 % of control | dose: 44.0 mg/kg/injection, schedule: Q01DX005 (ip), vehicle: Klucel (hydroxypropylcellulose) (HPC) 106 % of control | dose: 88.0 mg/kg/injection, schedule: Q01DX005 (ip), vehicle: Klucel (hydroxypropylcellulose) (HPC) 106 % of control | dose: 176.0 mg/kg/injection, schedule: Q01DX005 (ip), vehicle: Klucel (hydroxypropylcellulose) (HPC) 107 % of control

CN(C)/N=C/c1c[nH]c2ccccc12
inactive: dose: 6.25 mg/kg/injection, schedule: Q01DX009 (ip), vehicle: Klucel (hydroxypropylcellulose) (HPC) 105 % of control | dose: 12.5 mg/kg/injection, schedule: Q01DX009 (ip), vehicle: Klucel (hydroxypropylcellulose) (HPC) 103 % of control | dose: 25.0 mg/kg/injection, schedule: Q01DX009 (ip), vehicle: Klucel (hydroxypropylcellulose) (HPC) 100 % of control | [9] 118 % of control | [10] 111 % of control

COc1ccc(C(c2c(O)c3ccccc3oc2=O)N2CCOCC2)c(OC)c1 (configuration not stated)
inactive: dose: 60.0 mg/kg/injection, schedule: Q01DX005 (ip), vehicle: saline with Tween-80 99 % of control | dose: 120.0 mg/kg/injection, schedule: Q01DX005 (ip), vehicle: saline with Tween-80 107 % of control

Cc1ccc(S(=O)(=O)N/N=C/c2ccc(C(=O)O)cc2)cc1
inactive: dose: 12.5 mg/kg/injection, schedule: Q01DX009 (ip), vehicle: other 105 % of control | dose: 25.0 mg/kg/injection, schedule: Q01DX009 (ip), vehicle: other 111 % of control | dose: 50.0 mg/kg/injection, schedule: Q01DX009 (ip), vehicle: other 109 % of control | dose: 100.0 mg/kg/injection, schedule: Q01DX009 (ip), vehicle: other 100 % of control | dose: 200.0 mg/kg/injection, schedule: Q01DX009 (ip), vehicle: other 95 % of control | dose: 400.0 mg/kg/injection, schedule: Q01DX009 (ip), vehicle: other 105 % of control

CC(=O)NCc1ccc(N2C(N)=NC(N)=NC2(C)C)cc1
inactive: dose: 25.0 mg/kg/injection, schedule: Q04DX002 (ip), vehicle: saline 100 % of control | dose: 50.0 mg/kg/injection, schedule: Q04DX002 (ip), vehicle: saline 116 % of control | dose: 100.0 mg/kg/injection, schedule: Q04DX002 (ip), vehicle: saline 100 % of control

COC(=O)c1ccccc1NC1=NS(=O)(=O)c2ccccc2N1C
inactive: [6] 87 % of control | [7] 86 % of control | [8] 87 % of control

O=C1CC2(CCCCC2)C(=O)N1c1ccc(S(=O)(=O)NC(=S)Nc2ccc(Br)cc2)cc1
inactive: [9] 98 % of control | [10] 95 % of control | dose: 200.0 mg/kg/injection, schedule: Q01DX009 (ip), vehicle: Klucel (hydroxypropylcellulose) (HPC) 104 % of control
